Consider two molecules from patent US5338868A, “Process for preparing alpha-amino-phenylacetic acid-trifluoromethane sulfonic acid mixed anhydrides” (Chinoin Gyogyszer- es Vegyeszeti Termekek Gyara Rt., priority 1989, dated 1994).

The series is described as follows: Quality of the Dane salt during storage for 30 days. The format is physicochemical.

On to `CCOC(=O)C=C(C)N[C@@H](C(=O)O)c1ccc(O)cc1` [Example 9], for which the quality during storage result (room temperature, air) is reported as “does not change”.
On to `CCOC(=O)C=C(C)N[C@@H](C(=O)[O-])c1ccccc1.[Na+]` [Example 15, sodium-D-N-(2-ethoxycarbonyl-1-methyl-vinyl)-α-amino-phenyl-acetate], for which the quality after storage result (stored at room temperature) is reported as “remains unchanged”.
